System: LTC₄ induced contraction of guinea-pig ileum
Test: Inhibition of leukotriene (LTC₄) induced contraction of guinea-pig ileum in vitro
Assay type: cell-based, guinea-pig (Male Dunkin-Hartley strain)
Conditions: Cavia porcellus
Protocol: The leukotriene antagonist activity of the compounds of this invention is measured by the ability of the compounds to inhibit the leukotriene induced contraction of guinea-pig ileum in vitro as described below.
Five (5) centimeter longitudinal strips of guinea-pig ileum (Male Dunkin-Hartley strain) were bathed in modified Tyrodes buffer, containing 3µM indomethacin, in jacketed 10 mL tissue baths at 37°C and continuously aerated with 95% O₂/5% CO₂. The tissues were connected via cotton sutures to isotonic transducers. The tissues were equilibrated for 60 minutes and 100µM histamine was added to determine the maximal response of the tissues. This was removed by washout to give a steady baseline. Then the test compound, or vehicle control, was added cumulatively in half-log units until a bath concentration of 10µM was reached.
After a further equilibration period of 15 minutes, a concentration response curve to the reference agonist (LTD₄ or LTC₄) was generated. All determinations were carried out in triplicate and observations normalised against the maximal leukotriene response. Least-squares linear regression analysis was then used to calculate the concentration of leukotriene needed to elicit 50% of the maximum response and defined as the EC₅₀. […]
All compounds were measured against LTD₄ as the reference agonists except the compound of Example 65 which were measured against LTC₄.

With `CCCCC/C=C\C\C=C/C=C/C=C/[C@@H](Sc1ccc(C(=O)O)cc1)[C@@](C)(O)CCCC(=O)O` [Example 65, 5S-Hydroxy-5-methyl-6R-(4-carboxyphenylthio)eicosa-7E,9E,11Z,14Z-tetraenoic Acid] the Kb was 0.398 µM.

From patent EP0410244A1, “Leukotriene antagonists” (BAYER AG, priority 1989, dated 1991)
